According to patent US20240268388A1, “AGRICULTURAL AND HORTICULTURAL FUNGICIDAL COMPOSITION” (NIPPON SODA CO., LTD., priority 2021, published 2024):
Like-named read-outs stand apart in the source and are kept apart here.

Legend:
[1] = tested on: wheat leaf blight pathogen (Septoria tritici); experiment: Fungicidal test for wheat leaf blight (microplate, turbidity at 405 nm); type: cell-based; conditions: for inhibition at 6.3 ppm / inhibition at 12.5 ppm / inhibition at 25 ppm / inhibition at 50 ppm / inhibition at 100 ppm: Zymoseptoria tritici, component (I) alone, read-out: growth inhibition rate; for growth inhibition rate: component (II) alone
Protocol: Compounds of component (I) and component (II) were dissolved in dimethyl sulfoxide at 10,000 ppm and diluted with water to the prescribed concentration to prepare a chemical agent solution. A mixture of the prescribed concentration of the chemical agent solution, wheat leaf blight pathogen (Septoria tritici) conidia, and malt extract was prepared on a microplate and incubated at 20° C. in the dark for 3 days. The turbidity at a wavelength of 405 nm was measured with a microplate reader, and the growth of wheat leaf blight pathogen was compared with that of no treatment control to determine the growth inhibition rate. The results are shown in Tables 2 to 7, along with the expected values calculated as below.
Each expected value was calculated from the fungicidal efficacy of a single application of the compound of component (I) and the fungicidal efficacy of a single application of compound of component (II) by using Colby's equation (S. R. Colby, Calculating synergistic and antagonistic responses of herbicide combinations, Weeds, 15, 20-22 pp (1967)).
[formula] • where E represents the expected value of the growth inhibition rate (%) for the composition containing component (I) and component (II), M represents the growth inhibition rate (%) when the component (I) is used alone, and N represents the growth inhibition rate (%) when the component (II) is used alone. When the measured growth inhibition rate (%) for the composition containing component (I) and component (II) is greater than the expected value E, the composition containing components (I) and component (II) should exert a synergistic effect.

[2] = tested on: cucumber anthracnose pathogen (Colletotrichum lagenarium); experiment: Fungicidal test for cucumber anthracnose (microplate, turbidity at 405 nm); type: cell-based; conditions: for inhibition at 0.025 ppm / inhibition at 0.1 ppm / inhibition at 0.4 ppm: Colletotrichum orbiculare, read-out: growth inhibition rate
Protocol: The compounds were dissolved in dimethyl sulfoxide to prepare a chemical agent solution.
A mixture of the prescribed concentration of the chemical agent solution, cucumber anthracnose pathogen (Colletotrichum lagenarium) conidia, and Vogel medium was prepared on a microplate and incubated at 20° C. in the dark for 7 days.
Each expected value was calculated using Colby's equation:
[formula] • where E represents the expected value of the growth inhibition rate (%), M represents the growth inhibition rate (%) when the component (I) is used alone, and N represents the growth inhibition rate (%) when the component (II) is used alone.

[3] = tested on: soybean rust pathogen (Phakopsora pachyrhizi); experiment: Soybean rust control test (leaf discs); type: in vivo
Protocol: Compounds of component (I) and component (II) were dissolved in dimethyl sulfoxide and diluted with water to the prescribed concentration to prepare a chemical agent solution. A mixture of the prescribed concentration of the chemical agent solution and sterile water was prepared on a microplate, and leaf discs cut from soybean leaves were floated on the microplate. Uredospores of soybean rust pathogen (Phakopsora pachyrhizi) were inoculated and incubated at 25° C. for 9 days. The area percentage of lesions was determined by observing uredospore-forming lesions on the leaf discs, and the control value was calculated. The control value was calculated by the following formula:
Control value (%)=100−{Area percentage of lesions in treatment plot/Area percentage of lesions in untreatment plot}×100.
The results are shown in Tables 8 to 18, along with the expected values calculated as below. Each expected values was calculated from the fungicidal efficacy of a single application of compound of component (I) and the fungicidal efficacy of a single application of compound of component (II) by using Colby's equation:
[formula] • where E represents the expected value of the control value for the composition containing component (I) and component (II), M represents the control value (%) when the component (I) is used alone, and N represents the control value (%) when the component (II) is used alone. When the measured control value for the composition containing component (I) and component (II) is greater than the expected value E, the composition containing component (I) and composition (II) should exert a synergistic effect.

[4] = component (I) alone, 0.0063 ppm
[5] = Table 19, component (II) alone (component (I): None): Ipflufenoquin 0.000026, Iminoctadine trialbesilate 0.0032, Cyflufenamid 10, Cyprodinil 0.00013, Potassium bicarbonate 0.08, Thiophanate-methyl 0.08, Picarbutrazox 0.016, Fludioxonil 0.0032, Florylpicoxamid 0.0032, Metyltetraprole 0.08, Mefentrifluconazole 0.4 ppm
[6] = Table 20, component (II) alone (component (I): None): Ipflufenoquin 0.00064, Iminoctadine trialbesilate 0.0032, Cyflufenamid 10, Cyprodinil 0.00013, Potassium bicarbonate 0.08, Thiophanate-methyl 0.4, Picarbutrazox 0.016, Fludioxonil 0.0032, Florylpicoxamid 0.0032, Metyltetraprole 0.08, Mefentrifluconazole 0.4 ppm
[7] = Table 21, component (II) alone (component (I): None): Ipflufenoquin 0.00064, Iminoctadine trialbesilate 0.0032, Cyflufenamid 10, Cyprodinil 0.00013, Potassium bicarbonate 0.08, Thiophanate-methyl 0.4, Picarbutrazox 0.00064, Fludioxonil 0.0032, Florylpicoxamid 0.0032, Metyltetraprole 0.08, Mefentrifluconazole 0.4 ppm
[8] = Table 22, component (II) alone (component (I): None): Ipflufenoquin 0.00064, Iminoctadine trialbesilate 0.0032, Cyflufenamid 10, Cyprodinil 0.00013, Potassium bicarbonate 0.08, Thiophanate-methyl 0.4, Picarbutrazox 0.00064, Fludioxonil 0.0032, Florylpicoxamid 0.0032, Metyltetraprole 0.08, Mefentrifluconazole 0.4 ppm
[9] = Table 23, component (II) alone (component (I): None): Ipflufenoquin 0.00064, Iminoctadine trialbesilate 0.0032, Cyflufenamid 10, Cyprodinil 0.000026, Potassium bicarbonate 0.08, Thiophanate-methyl 0.4, Picarbutrazox 0.00064, Fludioxonil 0.00064, Florylpicoxamid 0.0032, Metyltetraprole 0.08, Mefentrifluconazole 0.4 ppm
[10] = Table 24, component (II) alone (component (I): None): Ipflufenoquin 0.00064, Iminoctadine trialbesilate 0.0032, Cyflufenamid 10, Cyprodinil 0.00013, Potassium bicarbonate 0.08, Thiophanate-methyl 0.4, Picarbutrazox 0.00064, Fludioxonil 0.00013, Florylpicoxamid 0.0032, Metyltetraprole 0.08, Mefentrifluconazole 0.4 ppm
[11] = Table 14, component (II) alone (component (I): None): Inpyrfluxam 0.00025, Chlorothalonil 0.006, Thiophanate-methyl 0.0001, Tebuconazole 0.000025, Trifloxystrobin 0.0001, Fluazinam 0.006, Prothioconazole 0.000025, Florylpicoxamid 0.0001, Metominostrobin 0.0004 ppm
[12] = Table 15, component (II) alone (component (I): None): Azoxystrobin 0.0001, Inpyrfluxam 0.000025, Chlorothalonil 0.0063, Difenoconazole 0.000025, Cyproconazole 0.000025, Tebuconazole 0.000025, Trifloxystrobin 0.0001, Pyraclostrobin 0.0001, Fluazinam 0.0063, Fluxapyroxad 0.000025, Prothioconazole 0.000025, Florylpicoxamid 0.0001, Benzovindiflupyr 0.000025, Mancozeb 0.0063 ppm
[13] = Table 16, component (II) alone (component (I): None): Inpyrfluxam 0.000025, Chlorothalonil 0.006, Thiophanate-methyl 0.0001, Tebuconazole 0.000025, Trifloxystrobin 0.0001, Fluazinam 0.006, Prothioconazole 0.000025, Florylpicoxamid 0.0001, Metominostrobin 0.0004 ppm
[14] = Table 17, component (II) alone (component (I): None): Inpyrfluxam 0.000026, Chlorothalonil 0.02, Thiophanate-methyl 0.0004, Tebuconazole 0.0001, Trifloxystrobin 0.0001, Fluazinam 0.006, Prothioconazole 0.000025, Florylpicoxamid 0.0001, Metominostrobin 0.0004 ppm
[15] = Table 18, component (II) alone (component (I): None): Azoxystrobin 0.0001, Inpyrfluxam 0.000025, Chlorothalonil 0.0063, Difenoconazole 0.000025, Cyproconazole 0.000025, Tebuconazole 0.000025, Trifloxystrobin 0.0001, Pyraclostrobin 0.0001, Fluazinam 0.0063, Fluxapyroxad 0.000025, Prothioconazole 0.000025, Florylpicoxamid 0.0001, Benzovindiflupyr 0.000025, Mancozeb 0.0063 ppm

**Q.** `N#CCON=C1CN(C(=O)Cc2ccc(-c3noc(C(F)(F)F)n3)cc2)C1` [Compound 3] was tested. Which inhibition at 6.3 ppm [1] did it give?
**A.** 32%

**Q.** And the inhibition at 12.5 ppm [1]?
**A.** 41%

**Q.** What about the inhibition at 25 ppm [1] of the same compound?
**A.** 42%

**Q.** And the inhibition at 50 ppm [1]?
**A.** 44%

**Q.** What about the inhibition at 100 ppm [1] of the same compound?
**A.** 49%

**Q.** What about the inhibition at 0.025 ppm ([2]; Compound 3 alone) of the same compound?
**A.** 26%

**Q.** What about the inhibition at 0.1 ppm ([2]; Compound 3 alone) of the same compound?
**A.** 9%

**Q.** And the inhibition at 0.4 ppm ([2]; Compound 3 alone)?
**A.** 84%

**Q.** What about the control value [3, 4] of the same compound?
**A.** 12%

**Q.** And the control value ([3]; component (I) alone, 0.025 ppm)?
**A.** 22%

**Q.** What about the control value ([3]; component (I) alone, 0.1 ppm) of the same compound?
**A.** 35%

**Q.** And the control value ([3]; component (I) alone, 0.4 ppm)?
**A.** 85%

**Q.** For `CCON=C1CN(C(=O)C(OC)c2ccc(-c3noc(C(F)(F)F)n3)cc2)C1` (stereo not shown) [Compound 5], which inhibition at 6.3 ppm [1] is on record?
**A.** 61%

**Q.** What about the inhibition at 12.5 ppm [1] of the same compound?
**A.** 68%

**Q.** And the inhibition at 25 ppm [1]?
**A.** 68%

**Q.** What about the inhibition at 50 ppm [1] of the same compound?
**A.** 64%

**Q.** And the inhibition at 100 ppm [1]?
**A.** 72%

**Q.** And the inhibition at 0.025 ppm ([2]; Compound 5 alone)?
**A.** 4%

**Q.** What about the inhibition at 0.1 ppm ([2]; Compound 5 alone) of the same compound?
**A.** 76%

**Q.** What about the inhibition at 0.4 ppm ([2]; Compound 5 alone) of the same compound?
**A.** 90%

**Q.** What about the control value [3, 4] of the same compound?
**A.** 7%

**Q.** And the control value ([3]; component (I) alone, 0.025 ppm)?
**A.** 18%

**Q.** What about the control value ([3]; component (I) alone, 0.1 ppm) of the same compound?
**A.** 46%

**Q.** And the control value ([3]; component (I) alone, 0.4 ppm)?
**A.** 90%

**Q.** Which results are given for `CCON=C1CN(C(=O)C(C)c2ccc(-c3noc(C(F)(F)F)n3)cc2)C1` (stereo not shown) [Compound 6]?
**A.** inhibition at 6.3 ppm [1]: 47%; inhibition at 12.5 ppm [1]: 58%; inhibition at 25 ppm [1]: 63%; inhibition at 50 ppm [1]: 64%; inhibition at 100 ppm [1]: 69%; inhibition at 0.025 ppm ([2]; Compound 6 alone): 32%; inhibition at 0.1 ppm ([2]; Compound 6 alone): 67%; inhibition at 0.4 ppm ([2]; Compound 6 alone): 86%; control value [3, 4]: 19%; control value ([3]; component (I) alone, 0.025 ppm): 49%; control value ([3]; component (I) alone, 0.1 ppm): 76%; control value ([3]; component (I) alone, 0.4 ppm): 98%

**Q.** For `COc1ccnc(C(=O)N[C@@H](C)C(=O)O[C@@H](C)C(c2ccc(F)cc2)c2ccc(F)cc2)c1OC(C)=O` [Florylpicoxamid, florylpicoxamid, reference compound], which growth inhibition rate ([1]; 0.001 ppm) is on record?
**A.** 80%

**Q.** What about the growth inhibition rate ([1]; .0002 ppm (also printed 0002)) of the same compound?
**A.** 70%

**Q.** And the growth inhibition rate [2, 5]?
**A.** 0%

**Q.** What about the growth inhibition rate [2, 6] of the same compound?
**A.** 0%

**Q.** And the growth inhibition rate [2, 7]?
**A.** 0%

**Q.** And the growth inhibition rate [2, 8]?
**A.** 0%

**Q.** And the growth inhibition rate [2, 9]?
**A.** 0%

**Q.** And the growth inhibition rate [2, 10]?
**A.** 0%

**Q.** And the control value [3, 11]?
**A.** 27%

**Q.** And the control value [3, 12]?
**A.** 0%

**Q.** And the control value [3, 13]?
**A.** 27%

**Q.** And the control value [3, 14]?
**A.** 27%

**Q.** And the control value [3, 15]?
**A.** 0%

**Q.** How did the growth inhibition rate ([1]; 0.06 ppm) turn out when `Cc1nc2c(F)c(F)ccc2cc1Oc1cccc(F)c1C(C)(C)O` [Ipflufenoquin, ipflufenoquin, reference compound] was run?
**A.** 6%

**Q.** And the growth inhibition rate ([1]; 0.25 ppm)?
**A.** 6%

**Q.** What about the growth inhibition rate ([1]; 1 ppm) of the same compound?
**A.** 22%

**Q.** What about the growth inhibition rate [2, 5] of the same compound?
**A.** 0%

**Q.** What about the growth inhibition rate [2, 6] of the same compound?
**A.** 47%

**Q.** What about the growth inhibition rate [2, 7] of the same compound?
**A.** 47%

**Q.** What about the growth inhibition rate [2, 8] of the same compound?
**A.** 47%

**Q.** What about the growth inhibition rate [2, 9] of the same compound?
**A.** 47%

**Q.** And the growth inhibition rate [2, 10]?
**A.** 47%

**Q.** Which growth inhibition rate ([1]; 0.01 ppm) does the source give for inpyrfluxam [reference compound] here?
**A.** 24%

**Q.** And the growth inhibition rate ([1]; 0.04 ppm)?
**A.** 49%

**Q.** What about the control value [3, 11] of the same compound?
**A.** 16%

**Q.** What about the control value [3, 12] of the same compound?
**A.** 50%

**Q.** And the control value [3, 13]?
**A.** 16%

**Q.** What about the control value [3, 14] of the same compound?
**A.** 16%

**Q.** What about the control value [3, 15] of the same compound?
**A.** 50%

**Q.** How did the growth inhibition rate ([1]; 0.004 ppm) turn out when mancozeb was run?
**A.** 9%

**Q.** And the growth inhibition rate ([1]; 0.02 ppm)?
**A.** 19%

**Q.** What about the growth inhibition rate ([1]; 0.06 ppm) of the same compound?
**A.** 19%

**Q.** And the control value [3, 12]?
**A.** 0%

**Q.** What about the control value [3, 15] of the same compound?
**A.** 0%
